The values below come from paper PMC7515829, “HKDC1 C-terminal based peptides inhibit extranodal natural killer/T-cell lymphoma by modulation of mitochondrial function and EBV suppression” (Leukemia, 2020).

Ends that are not written are not given here.

One assay has as its system MNCs from ENKTL patients. As to conditions: read-out: IC50 (µM) ENKTL, half-maximal cell death activity, peptides 0.1–15 µM, 6 h, PI staining, FACS, mean ± SEM, n in cell. From the text: (§1) We investigated the potential role of HKDC1-based peptides in ENKTL cells that were isolated from the MNCs of ENKTL patients or SNK6 cell line. Three different kinds of HKDC1-based targeting peptides, including the last 15 aa at either the N-terminal (HKN15) or C-terminal (HKC15), or the last eight aa at the C-terminal (HKC8) were selected; four different kinds of cell-penetrating sequences were employed to deliver the HKDC1-based peptides, including Antp (a 16 penetrating residue long sequence from the Drosophila antennapedia-homeodomain), penetration-accelerating segment, TAT (HIV-1 TAT sequence), and Tf (the Tf receptor (TfR) internalization sequence) sequences. All of the aa with the D-configuration (marked as D) were synthesized as retro-inverso peptides. […] We then evaluated the toxic effect of two peptides (including Tf-D-HKC15 and Tf-D-HKC8) on different kinds of primary and cancer cell lines (see details in Table 2). […] We also evaluated the peptide delivery efficiency using ^125I-labeled uptake assay for both Tf-D-HKC8 and Tf-D-HKC15 peptides.
(§2) Measurement of apoptosis and cell death. Apoptosis was evaluated by TUNEL assay using the In Situ Cell Death Detection Kit™ (Roche). Cells were fixed in 4% paraformaldehyde and labeled with TUNEL reagents. Stained cells were photographed by a fluorescence microscope (11). For cell death analysis, the propidium iodide (PI) staining was performed by addition of 6.25 µg/ml of PI to the cells, and cell death was immediately evaluated by FACS analysis (3).

The test system of assay [1] is SNK6 cells. As to conditions: read-out: IC50 (µM) SNK6, half-maximal cell death activity; SNK6 cells; peptides 0.1–15 µM, 6 h; PI staining, FACS; mean ± SEM, n in cell (Table 1).
Source text: as §1, §2

The test system of assay [2] is SNK6 cells. Put plainly: ROS formation (CM-H2DCFDA). It counts as cell-based, human. The following applies: 0.5 µM peptide, 6 h, compared with CTL group, n = 5 (Fig. 3a). As to the method:
Measurement of ROS generation. Treated cells were seeded in a 24-well plate and incubated with 10μM CM-H2DCFDA (Invitrogen) for 45 min at 37°C, and then the intracellular formation of reactive oxygen species (ROS) was measured at excitation/emission wavelengths of 485/530nm using a FLx800 microplate fluorescence reader (Bio-Tek). The data was normalized as arbitrary units (8, 11).

For assay [3], the system named is SNK6 cells. The experiment in a line: 3-nitrotyrosine formation (ELISA). The class given is cell-based, human. The following applies: 0.5 µM peptide, 6 h, compared with CTL group, n = 5 (Fig. 3b). As to the method:
Antibodies for β-actin (sc-47778), EBV Ea-D (sc-58121), EBV ZEBRA (BZ1, sc-53904), Ki-67 (sc-101861) and VDAC1 (sc-390996) were obtained from Santa Cruz Biotechnology. Antibodies for HK2 (ab104836), H2AX (ab20669), γH2AX (ab2893) and P-gp (ab129450) were obtained from Abcam. The antibody for HKDC1 (NBP1-82108) was obtained from Novus Biologicals. 3-nitrotyrosine (3-NT) was measured by 3-Nitrotyrosine ELISA Kit (ab116691 from Abcam). Nuclear extracts were prepared using the NE-PER Nuclear and Cytoplasmic Extraction Reagents Kit (Pierce Biotechnology). Protein concentration was measured using the Coomassie Protein Assay Kit (Pierce Biotechnology) per manufacturers’ instructions.
On the technique in general: ELISA stands for enzyme-linked immunosorbent assay.

Assay [4] deals with SNK6 cells. Put plainly: 8-OHdG formation (DNA damage ELISA). It counts as cell-based, human. As to conditions: 0.5 µM peptide, 6 h, vs CTL, n = 5 (Fig. 3c). As for the experimental part: (§3) Measurement of DNA breaks. 8-OHdG formation was measured using an OxiSelect™ Oxidative DNA Damage ELISA Kit (Cat No. STA320, from Cell Biolabs Inc.) per manufacturers’ instructions. The formation of γH2AX was measured from nuclear extracts by western blotting using H2AX as the input control (8).

The subject of assay [5] is SNK6 cells. Put plainly: γH2AX formation (western blot). The class given is cell-based, human. The following applies: 0.5 µM peptide, 6 h, vs CTL, n = 5 (Fig. 3d). As to the method: as §3
In general terms: Immunoblotting shows a protein as a band on a membrane.

A further assay concerns EBV. The experiment in a line: EBV viral genomes/cell by qPCR in SNK6 cells. It counts as cell-based. The following applies: 0.5 µM peptide, 6 h, vs CTL, n = 4 (Fig. 3i). As for the experimental part:
Detection of EBV copy number. Genomic DNA was extracted from treated SNK-6 cells or SNK-6 tumor tissue in mice using a QIAamp DNA Mini Kit (Qiagen). The EBV DNA copy number was measured through qPCR using 50ng of total DNA with EBV BMRF1 primers (see Table 1), and the results were normalized using cellular β-actin (primers see Table 1) as an internal control (13, 14). The Namalwa cell line, which contains 2 EBV viral genome copies, was used as a standard to prepare calibration curves for both EBV BMRF1 and β-actin genes, and the EBV viral load was presented as the number of viral genomes per cell (15, 16).
(Real-time PCR tracks product formation cycle by cycle.)

Assay [6] relates to SNK6 cells. The experiment in a line: Apoptosis rate by TUNEL assay. It counts as cell-based, human. The following applies: 0.5 µM peptide, 6 h, compared with CTL group, n = 5 (Fig. 4h). As for the experimental part: as §2
In assay [7] the test system is SNK6 cells. The experiment in a line: Cell proliferation by thymidine incorporation. It counts as cell-based, human. The following applies: 0.5 µM peptide, 6 h, vs CTL, n = 5 (Fig. 5a). As for the experimental part:
DNA synthesis by [^3H]-thymidine incorporation. Cell proliferation was evaluated as the rate of DNA synthesis by [^3H]-methylthymidine incorporation (17). […] At the end of the treatment, cells were incubated with serum-free media containing ^3H-methylthymidine (0.5 µCi/well) for 2 hours and then washed twice with PBS. Cellular DNA was precipitated using 10% trichloroacetic acid and solubilized with 0.4M NaOH (0.5 ml/well). Incorporation of ^3H-methylthymidine into the DNA was measured in a scintillation counter and was determined as counts per minute (CPM) (8).

The subject of assay [8] is SNK6 cells. The following applies: 0.5 µM peptide, 6 h, vs CTL, n = 3 (Fig. 5g). As for the experimental part: Immunostaining. […] The cells were then washed three times and the FITC labeled anti-mouse secondary antibody (1:100) was added for blotting for another 1 hour. After thorough washing, the slides were visualized and photographed, the nuclei of cells were stained with 4’,6-diamidino-2-phenylindole dihydrochloride (DAPI, #D9542, from Sigma), and the positive Ki-67 cells were quantitated.

For assay [9], the system named is SNK6 xenograft. Put plainly: SNK6 xenograft tumor volume. The class given is in vivo, mouse. As to conditions: nude mice, n = 5.
Procedure: To measure malignant SNK6 xenograft growth, 100 µl of 1 × 10^5 SNK6 cells in PBS were mixed with 100 µl growth factor-reduced basement membrane matrix (Matrigel™, BD Biosciences) resulting in 200 µl of solution that was injected subcutaneously along the mouse flank at each intended tumor site. Tumor size was measured using a digital caliper and volume was calculated, and mice were randomly divided into four groups (n = 9 per group) when the tumor volume reached 50–100 mm^3 on day ~18 after tumor inoculation and given treatment as follows: Group 1 (control (CTL)) was intratumorally injected with HBSS buffer (5.33 mM KCl, 0.44 mM KH2PO4, 138 mM NaCl, 4 mM NaHCO3, 0.3 mM Na2HPO4, and 5.6 mM glucose, pH 7.3) containing 0.05% DMSO; Group 2 (Tf-D-HKN15) received HBSS buffer containing 0.05% DMSO with 50 µM Tf-D-HKN15 peptides; Group 3 (Tf-D-HKC15) received HBSS buffer containing 0.05% DMSO with 50 µM Tf-D-HKC15 peptides; Group 4 (Tf-D-HKC8) received HBSS buffer containing 0.05% DMSO with 50 µM Tf-D-HKC8 peptides. The xenografts were injected (two points, 20 µl per tumor) every 2 days. Beginning on the day of inoculation, mouse weight and tumor volume were monitored every 2 days. Mice were monitored for changes in body weight and sacrificed when values fell below 20% of their initial weight; the survival curve was calculated and the final tumor tissues were isolated for biomedical analysis.
To measure the malignant SNK6 xenograft growth, the 100µl of 1x10^5 SNK6 cells in PBS were mixed with 100µl growth factor-reduced basement membrane matrix (Matrigel™, BD Biosciences) resulting in 200µl of solution that was injected subcutaneously along the mouse flank at each intended tumor site. Tumor size was measured using a digital caliper and volume was calculated, and mice were randomly divided into 4 groups (n=9 per group) when the tumor volume reached 50-100 mm^3 on day ~18 after tumor inoculation: Group 1 (CTL) was intratumorally injected with HBSS buffer (5.33 mM KCl, 0.44 mM KH2PO4, 138 mM NaCl, 4 mM NaHCO3, 0.3 mM Na2HPO4, and 5.6 mM glucose, pH 7.3) containing 0.05% DMSO; Group 2 (Tf-D-HKN15) received HBSS buffer containing 0.05% DMSO with 50 µM Tf-D-HKN15 peptides; Group 3 (Tf-D-HKC15) received HBSS buffer containing 0.05% DMSO with 50 µM Tf-D-HKC15 peptides; Group 4 (Tf-D-HKC8) received HBSS buffer containing 0.05% DMSO with 50 µM Tf-D-HKC8 peptides. The xenografts were injected (two points, 20 µL per tumor) every two days. Beginning on the day of inoculation, mouse weight and tumor volume were monitored every 2 days. Mice were monitored for changes in body weight and sacrificed when values fell below 20% of their initial weight, the survival curve was calculated and the final tumor tissues were isolated for biomedical analysis.
Assay [10] deals with SNK6 xenograft. Put plainly: Mouse survival, Kaplan–Meier analysis. The class given is in vivo. As to conditions: nude mice, intratumoral 50 µM peptide every 2 days from day ~18, compared with CTL group, n = 9. As for the experimental part: Statistical analysis. The data was given as mean ± SEM; all of the experiments were performed at least in quadruplicate unless otherwise indicated. One-way ANOVA followed by the Bonferroni post hoc test was used to determine statistical significance of different groups. The mouse survival curve was determined through Kaplan-Meier survival analysis using SPSS 22 software, and a P value < 0.05 was considered significant (8).

For another assay, the target named is HKDC1/VDAC1 (Homo sapiens, UniProt P21796). The experiment in a line: IP/WB association of HKDC1 with VDAC1 in SNK6 cells. The class given is cell-based. Set-up: endogenous in cells; host or cells: SNK6. The following applies: 0.5 µM peptide, 6 h, vs CTL, n = 5 (Fig. 4c, d). As to the method:
Immunoprecipitation (IP) and Western Blotting (WB). Cell lysates were pre-cleared by pre-immune IgG plus Protein A agarose beads for 2 hours, and the supernatants were immunoprecipitated by the indicated antibodies and a 50% slurry of Protein A Agarose beads overnight at 4 °C (9). After washing with buffer containing 50 mM Tris, pH 7.5, 150 mM NaCl, 1% NP-40, and 0.5% deoxycholate with protease inhibitors, proteins were released, separated on 10% SDS-PAGE gels, blotted by primary antibodies, and then simultaneously incubated with the differentially labeled species-specific secondary antibodies, anti-RABBIT IRDye™ 800CW (green) and anti-MOUSE (or goat) ALEXA680 (red). Membranes were scanned and quantitated by the ODYSSEY Infrared Imaging System (LI-COR, NE) (10).

HKDC1/VDAC1, sequence (P21796 2-283 limits assumed): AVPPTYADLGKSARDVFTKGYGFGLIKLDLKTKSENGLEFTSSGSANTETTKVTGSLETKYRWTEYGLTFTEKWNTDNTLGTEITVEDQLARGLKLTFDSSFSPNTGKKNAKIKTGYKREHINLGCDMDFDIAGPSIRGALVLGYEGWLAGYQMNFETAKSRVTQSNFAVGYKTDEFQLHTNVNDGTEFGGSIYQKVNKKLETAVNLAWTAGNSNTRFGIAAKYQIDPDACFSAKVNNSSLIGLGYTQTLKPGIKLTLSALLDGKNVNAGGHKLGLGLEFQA

With “HAIYPRHEILNKEKK [Tf-Scram, reference compound]”, the IC50 in the assay with MNCs from ENKTL patients and in the assay on SNK6 cells [1] was over 15 µM throughout.
Consider “HAIYPRH-EILNKEKK [Tf-D-Scram, reference compound]”, for which the IC50 in the assay on MNCs from ENKTL patients and in the assay with SNK6 cells [1] was over 15 µM throughout.
GYGRKKRRQRRRGLQQAQKEN [TAT-HKC8]: the values for the IC50 with MNCs from ENKTL patients and in the assay on SNK6 cells [1] were 1.9 ± 0.4 µM and 2 ± 0.4 µM, respectively.
With HAIYPRHLQQAQKEN [Tf-HKC8], the IC50 was 0.5 ± 0.2 µM in the assay with MNCs from ENKTL patients and 0.7 ± 0.2 µM with SNK6 cells [1].
Consider HAIYPRH-MFAVHLMAFYFSKLK [Tf-D-HKN15], for which the IC50 in the assay with MNCs from ENKTL patients and with SNK6 cells [1] was over 15 µM in each case. Further, the ROS formation result with SNK6 cells [2] is given as “no effect”. Further, the 3-nitrotyrosine formation result in the assay on SNK6 cells [3] was “no effect”. In addition, the 8-OHdG formation entry in the assay on SNK6 cells [4] is “no effect”. In addition, the γH2AX formation entry in the assay with SNK6 cells [5] is reported as “no effect”. Moreover, in the assay with EBV, the EBV genome copies entry is “no effect”. Moreover, in the assay on SNK6 cells [6], the apoptosis rate increase entry was “no effect”. Besides, the thymidine incorporation entry in the assay on SNK6 cells [7] is listed as “no effect”. Besides, the “cell proliferation by quantitation of Ki-67 positive cells” value in the assay on SNK6 cells [8] is on record as “no effect”. Also, the “tumor volumes on day 36” value with SNK6 xenograft [9] (intratumoral 50 µM peptide every 2 days from day ~18, day 36, vs CTL) is reported as “no effect”. For the same substance, in the assay on SNK6 xenograft [9] (intratumoral 50 µM peptide every 2 days from day ~18, day 48, vs CTL), the “tumor volumes on day 48” value is on record as “no effect”. Also, the mouse survival result in the assay with SNK6 xenograft [10] was “little effect”. Further, on HKDC1/VDAC1, the “association of HKDC1 with VDAC1” value is given as “no effect”.
RQIKIWFQNRRMKWKK-LQQAQKEN [Antp-D-HKC8]: the IC50 with MNCs from ENKTL patients was 1 ± 0.3 µM; in the assay with SNK6 cells [1] it was 1.2 ± 0.4 µM.
On the same counts, the results for HAIYPRHMFAVHLMAFYFSKLK [Tf-HKN15] are over 15 µM and over 15 µM.
On the same counts, the results for GKPILFFLQQAQKEN [PAS-HKC8] are 1.4 ± 0.4 µM and 1.4 ± 0.3 µM.
In the same order, the values of HAIYPRHITAVAKRLQQAQKEN [Tf-HKC15] are 1.2 ± 0.4 µM and 1.4 ± 0.3 µM.
On to GYGRKKRRQRRRG-LQQAQKEN [TAT-D-HKC8], for which the IC50 in the assay with MNCs from ENKTL patients was 1.5 ± 0.7 µM; in the assay on SNK6 cells [1] it was 1.7 ± 0.5 µM.
Turning to RQIKIWFQNRRMKWKKLQQAQKEN [Antp-HKC8], the IC50 was 1.3 ± 0.4 µM in the assay with MNCs from ENKTL patients and 1.3 ± 0.3 µM in the assay on SNK6 cells [1].
On the same counts, the results for GKPILFF-LQQAQKEN [PAS-D-HKC8] are 1.1 ± 0.3 µM and 1.3 ± 0.3 µM.

The IC50 is the midpoint of a concentration-inhibition curve.
